Test results taken from patent publication US9193954B2, “Methods and compositions for mesenchymal stem cell proliferation” (priority 2011, dated 2015).

Columns and labels:
Type in all cases: cell-based, human
hMSCs [1] = assay: hMSC cell layer thickness by confocal microscopy; conditions: for cell layer thickness: day 40
Protocol: (§1) hMSC cell layer thickness was measured using the z-directional controls of a FV1000 Olympus Laser Scanning Confocal Microscope. On days 1, 14, and 40 cells, seeded on optically clear glass bottom 24-well culture plates (MatTek, Ashland, Mass.) were stained using a fluorescent LIVE/DEAD Viability/Cytotoxicity kit (Invitrogen). The focal plane of the microscope was adjusted to the cell-plate interface and set to zero. Using the z-directional controls the focal plane was raised until the live fluorescently stained cells were no longer visible at which point the cell layer thickness was recorded.

hMSCs [2] = assay: Media induced differentiation of BIO-treated hMSCs (histology and Cbfa1, Sox9, PPARγ expression)
Protocol: Dev Cell. […] After 24 hrs cell media was replaced and cells were allowed to proliferate over three weeks. After three weeks BIO-treated hMSCs were cultured for three weeks in standard differentiation-inducing media (FIG. 6a). For osteogenic differentiation hMSCs were grown in normal growth media with osteogenic supplements (100 nM dexamethasone, 10 mM β-glycerophosphate, 50 μM ascorbic acid-2-phosphate). […] Differentiated two-dimensional cell cultures were fixed in 24-well tissue culture plates for 48 hrs in 4% paraformaldehyde and the monolayers were stained for mineralization (von Kossa, osteogenic), or the presence of lipid droplets (oil red o, adipogenic). Undifferentiated cultures were also stained as negative controls. Images were taken on a Motic AE20 inverted light microscope using a Canon EOS Rebel T2i with an eyepiece modification.
For chondrogenic differentiation, hMSCs were seeded at a density of 5,000 cell/cm^2 in T-75 tissue culture flasks, allowed to become adherent, and treated with BIO containing growth media for 24 hrs. After 24 hrs, cell media was replaced and cells were allowed to proliferate over three weeks (FIG. 6a). […] Pellet cultures were fixed for 48 hrs in 4% paraformaldehyde, cryosectioned, and stained for glycosaminoglycan production (toluidine blue, chondrogenic). Stained sections were imaged as described above.
(§2) RT-PCR was used to assess gene expression of hMSCs over time. At days: 0 (before BIO treatment), 1, 3, 6, 19, 29, 34, 37, and 41, samples were lysed and total RNA was isolated (ENZA Total RNA Kit, Omega). Reverse transcription was performed using the iScript cDNA Synthesis Kit (Bio-Rad). The reverse transcription reaction was incubated at 25° C. for 5 min, 42° C. for 30 min, and terminated at 85° C. for 5 min. PCR was performed using a CFX96 Real-Time PCR System (Bio-Rad), monitoring sybrgreen products (SsoFastEvaGreen Master Mix, Bio-Rad). Primers for β-actin, sex determining region Y-box 2 (Sox2), Nanog homobox (Nanog), and octamer-binding transcription factor 4 (Oct4), core-binding factor subunit alpha-1 (Cbfa1, also known as Runx2), sex determining region Y-box 9 (Sox9), and peroxisome proliferator-activated receptor gamma (PPARγ) were used (Table 2). The PCR parameters used were as follows: hold at 95° C. for 5 min, followed by 40 cycles of: 95° C. for 15 sec denaturation, 60° C. (β-actin, Sox2, Sox9), or 57° C. (Nanog, Oct4, Cbfa1), or 55° C. (PPARγ) for 60 sec annealing, and 72° C. for 20 sec extension. Threshold cycle (CT) analysis was used to quantify PCR products normalized to the cellular housekeeping gene β-actin. Relative gene quantification was performed using the Pfaffl Method, taking into account the variation between primer efficiencies.

[3] = tested on: markers of undifferentiated stem cells, Sox2, Nanog, and Oct4; assay: RT-PCR of Sox2, Nanog, Oct4 in PEG-encapsulated BIO-treated hMSCs; conditions: for Nanog gene expression relative to untreated controls / Oct4 gene expression relative to untreated controls / Sox2 gene expression relative to untreated controls: 5 μM BIO
Protocol: as §2
A 10 wt % solution of PEGDM was prepared in phosphate buffered saline (PBS) with 2.0 mM acryloyl-PEG-RGDS. The photoinitiator lithium phenyl-2,4,6-trimethylbenzoylphosphinate (LAP) was synthesized using conventional techniques and added at a final concentration of 0.05 wt %. Trypsinized hMSCs were centrifuged to form pellets and counted. The PEG macromer solution was added to the cell pellet, and volumes were adjusted to achieve a final cell concentration of 25 million cells/mL. Using a sterile 1 mL syringe with the tip removed as a mold, 40 μL of PEG/cell solution was added and exposed to long-wavelength 365 nm light (5 mW/cm^2 intensity) for 10 min at room temperature. After photopolymerization was complete, the cell/hydrogel disks were removed from the syringes and placed in 24-well tissue culture plates (Greiner Bio-One, Monroe, N.C.) with growth media. The constructs were cultured up to 3 weeks at 37° C. and 5% CO2 with media changes occurring every three days.
Encapsulated hMSC viability, BIO treatment, and assessment of gene expression was performed as described in Section 2.3 with exception of cell lysate collection. For assessment of gene expression hMSC-PEG constructs were homogenized in lysis buffer and centrifuged to pellet polymerized PEG. The supernatant was then collected for analysis.

hMSCs [4] = assay: LIVE/DEAD confocal imaging of two-dimensional BIO-treated hMSC cultures; conditions: no detectable dead cells
Protocol: FIG. 4 Schematic representation of 41 day hMSC monolayer culture after 24 hr exposure to BIO-containing media (A). Cells were trypsinized and manually counted on days 0, 1, 3, 6, 19, 27, 34, 37, and 41 and shown to undergo a dose-dependent, BIO-mediated increase in proliferation (B).
as §1

[5] = 5 μM BIO, adipogenic-differentiated hMSCs
[6] = 5 μM BIO, osteogenic differentiated hMSCs

## O=C1Nc2cc(Br)ccc2/C1=C1/Nc2ccccc2/C1=N\O [BIO, 6-bromoindirubin-3′-oxime]
hMSCs [1]; 2 μM BIO
  cell layer thickness: 23.5 μm
hMSCs [1]; 5 μM BIO
  cell layer thickness: 24.0 μm
hMSCs [1]; day 0 and 14
  cell layer thickness versus untreated control: no statistically significant differences
hMSCs [2]; 5 μM BIO 24 hrs, 21 days proliferation, 3 weeks differentiation media
  histological analysis of differentiation (von Kossa, toluidine blue, oil red o), BIO-treated versus untreated: uniform mineralization
hMSCs [2]; [5]
  PPARγ expression over undifferentiated controls: 31.2 fold
  increase in PPARγ expression compared to differentiated non-BIO-treated (0 μM) controls: 5.0 fold
hMSCs [2]; 5 μM BIO, chondrogenic-differentiated hMSCs, not statistically significant
  Sox9 expression compared with undifferentiated controls: 0.6 fold
hMSCs [2]; [6]
  Cbfa1 expression over undifferentiated controls: 3.9 fold
  increase in Cbfa1 expression compared to differentiated non-BIO-treated (0 μM) controls: 2.1 fold
[3]; PEG hydrogel-encapsulated hMSCs
  time at which Sox2, Nanog, and Oct4 expression returned to basal levels: ~18 days
[3]; day 1, PEG-encapsulated
  Nanog gene expression relative to untreated controls: 2.4 fold
  Oct4 gene expression relative to untreated controls: 3.5 fold
  Sox2 gene expression relative to untreated controls: 2.2 fold
[3]; day 12, PEG-encapsulated
  Nanog gene expression relative to untreated controls: 2.7 fold
  Oct4 gene expression relative to untreated controls: 4.3 fold
  Sox2 gene expression relative to untreated controls: 4.1 fold
hMSCs [4]
  live cells (LIVE/DEAD imaging): ~100%
